Laboratory results reported in US20190336490A1, “COMPOSITIONS AND METHODS FOR INCREASING REMYELINATION” (Frequency Therapeutics, Inc., priority 2018, published 2019).

Assays:
[1] = target: T1, muscarinic M1 receptor (Homo sapiens, UniProt P11229); details: cited from earlier work
T1 sequence (P11229 1-460): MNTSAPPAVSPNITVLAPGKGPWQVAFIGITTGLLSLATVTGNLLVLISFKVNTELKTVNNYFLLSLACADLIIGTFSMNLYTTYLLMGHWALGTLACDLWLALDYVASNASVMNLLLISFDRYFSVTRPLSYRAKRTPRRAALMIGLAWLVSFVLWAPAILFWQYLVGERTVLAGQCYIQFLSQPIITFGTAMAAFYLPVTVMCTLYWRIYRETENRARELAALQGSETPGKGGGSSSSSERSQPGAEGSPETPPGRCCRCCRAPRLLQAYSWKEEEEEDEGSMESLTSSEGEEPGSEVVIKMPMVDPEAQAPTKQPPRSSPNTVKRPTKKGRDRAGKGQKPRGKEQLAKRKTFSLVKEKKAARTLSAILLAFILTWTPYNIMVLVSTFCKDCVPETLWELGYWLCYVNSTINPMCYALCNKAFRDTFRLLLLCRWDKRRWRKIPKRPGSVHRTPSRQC

[2] = tested on: OPC (oligodendrocyte precursor cell); test: OPC Cell Activity; type: cell-based
[3] = tested on: Rat primary optic nerve oligodendrocyte progenitor cells (OPCs); test: OPC differentiation assay (MBP staining); type: cell-based; details: 6 days

Molecule | In vitro M1 (Conc) [1] | OPC Cell Activity ([2]; Table 1, in words) | also measured
O=C(CCNS(=O)(=O)c1cccc2nsnc12)N1CCN(c2ccncc2)CC1 [VU0409774] | 690 nM |  | 
OC(CCN1CCCCC1)(c1ccccc1)C1CC2C=CC1C2 (stereo not shown) [Biperiden] | 0.85 nM |  | 
CCN(CC)CC#CCOC(=O)C(O)(c1ccccc1)C1CCCCC1 (stereo not shown) [Oxybutynin] |  |  | OPC Cell Activity ([2]; Table 1): 670 nM
CCN1CCCC(OC(=O)C(c2ccccc2)c2ccccc2)C1 (stereo not shown) [Piperidolate] |  | Active | 
CCN(CC)CCOCCOC(=O)C1(c2ccccc2)CCCC1 [Pentoxyverine, carbetapentane, Pentoxyverine] | 13 to 76 nM |  | OPC Cell Activity ([2]; Table 1): 260 nM
CN(C)CCOC(c1ccc(Cl)cc1)c1ccccn1 (stereo not shown) [Carbinoxamine] | 740 nM |  | 
CN(CCCN1c2ccccc2CCc2ccccc21)CC(=O)c1ccc(Cl)cc1 [Lofepramine] | 67 nM |  | 
Aminobenzotropine |  | Active | 
CN1[C@@H]2CC[C@H]1C[C@@H](OC(c1ccccc1)c1ccccc1)C2 [Benztropine] |  |  | OPC Cell Activity ([2]; Table 1): 170 to 350 nM
C[N+]1(C)[C@@H]2CC[C@H]1C[C@@H](OC(=O)C(CO)c1ccccc1)C2 (stereo partly shown) [Methylatropine] |  | Active | 
C[N+]1(C)CCCCC1COC(=O)C(O)(c1ccccc1)c1ccccc1 (stereo not shown) [Bevonium] |  | Active | 
Cc1ccc(O)c([C@H](CCN(C(C)C)C(C)C)c2ccccc2)c1 [Tolterodine] | 190 nM |  | 
CN1[C@@H]2CC[C@H]1C[C@@H](OC(=O)C(CO)c1ccccc1)C2 (stereo partly shown) [Atropine] |  |  | OPC Cell Activity ([2]; Table 1): 5700 nM
CC(CN(C)C)CN1c2ccccc2Sc2ccc(C#N)cc21 (stereo not shown) [Cyamemazine] | 11 nM |  | 
Clc1ccc(CCCOCCCN2CCCCC2)cc1 [Pitolisant (tiprolisant), Pitolisant] |  |  | OPC Cell Activity ([2]; Table 2): 14 to 100 nM; dose sparing activity with respect to the other agent ([3]; clemastine fumarate 0 to 5 μM combined with pitolisant hydrochloride 0 to 2 μM): dose sparing activity; OPC differentiation (% of MBP+ cells) ([3]; pitolisant hydrochloride alone, 0 to 2 μM): induce OPC differentiation
OC(CCN1CCCCC1)(c1ccccc1)C1CCCCC1 (stereo not shown) [Trihexyphenidyl] |  | Active | 
C[N+]1(C)CCCC(OC(=O)C(O)(c2ccccc2)c2ccccc2)C1 (stereo not shown) [Mepenzolate] | 27 nM | Active | 
CN(C)CCCN1c2ccccc2Sc2ccc(Cl)cc21 [Chlorpromazine] |  | Active | 
CCCC(CCC)C(=O)O[C@H]1C[C@H]2CC[C@@H](C1)[N+]2(C)C [Octatropine methylbromide] |  | Active | 
CN(C)CCC[C@@]1(c2ccc(F)cc2)OCc2cc(C#N)ccc21 [Escitalopram] |  | Active | 
OCCOCCN1CCN(C(c2ccccc2)c2ccc(Cl)cc2)CC1 (stereo not shown) [Hydroxyzine] | 3,800 nM | Active | 
CN(C)CCN(Cc1ccccc1)c1ccccn1 [Tripelennamine] | 1,3000 nM | Active | 
C[C@@H]1CCCN1CCCOc1ccc(-c2ccc(=O)[nH]n2)cc1 [Irdabisant] |  |  | OPC Cell Activity ([2]; Table 2): 250 nM
CN1CCCCC1CCN1c2ccccc2Sc2ccc([S+](C)[O-])cc21 (stereo not shown) [Mesoridazine] | 10 nM |  | 
Cc1noc(C)c1S(=O)(=O)N1CCN(c2ccc(N3CCCC(C)(C)C3)nn2)CC1 [VU6009833] | 288 nM |  | 
O=C(O[C@H]1CN2CCC1CC2)N1CCc2ccccc2[C@@H]1c1ccccc1 [Solifenacin] | 25 nM | Active | 

Molecule | In vitro M1 (Conc) [1] | OPC Cell Activity ([2]; Table 1, in words) | also measured
c1cc2c(cc1-c1noc(CC3CCN(C4CCC4)CC3)n1)OCO2 [GSK-247246] |  |  | OPC Cell Activity ([2]; Table 2): 25 to 100 nM
CCCOC(C(=O)OC1CCN(C)CC1)(c1ccccc1)c1ccccc1 [Propiverine] | 619 nM |  | OPC Cell Activity ([2]; Table 1): 420 nM
CN1[C@@H]2CC[C@H]1C[C@@H](OC(=O)[C@H](CO)c1ccccc1)C2 [Hyoscyamine] |  | Active | 
C[N+]1(C)CCC(OC(=O)C(O)(c2ccccc2)C2CCCC2)C1 (stereo not shown) [Glycopyrronium bromide] | 0.42 nM |  | 
O=C(O[C@H]1C[N+]2(CCCOc3ccccc3)CCC1CC2)C(O)(c1cccs1)c1cccs1 [Aclidinium bromide] | 0.10 nM |  | 
Clc1ccc(Cn2c(CN3CCCC3)nc3ccccc32)cc1 [Clemizole] |  |  | OPC Cell Activity ([2]; Table 2, in words): Active
CN1CCCC(n2nc(Cc3ccc(Cl)cc3)c3ccccc3c2=O)CC1 (stereo not shown) [Azelastine] | 4,200 nM |  | 
NC(=O)C(c1ccccc1)(c1ccccc1)[C@@H]1CCN(CCc2ccc3c(c2)CCO3)C1 [Darifenacin] |  | Active | 
CCN(CC)CC1CCCCN1CC(=O)N1c2ccccc2C(=O)Nc2cccnc21 (stereo not shown) [AF-DX 116] | 417 nM |  | 
CC(C)[N+]1(C)[C@@H]2CC[C@H]1C[C@@H](OC(=O)C(CO)c1ccccc1)C2 (stereo partly shown) [Ipratropium] | 1.31 nM | Active | 
CC(C1=C(CCN(C)C)Cc2ccccc21)c1ccccn1 (stereo not shown) [Dimetindene] | 320 nM |  | 
CN1CCC(OC(c2ccccc2)c2ccccc2)CC1 [Diphenylpyraline] |  | Active | 
CN1[C@@H]2C[C@@H](OC(=O)[C@H](CO)c3ccccc3)C[C@H]1[C@@H]1O[C@@H]12 [Scopolamine] |  |  | OPC Cell Activity ([2]; Table 1): 5100 nM
OCCOCCN1CCN(C2=Nc3ccccc3Sc3ccccc32)CC1 [Quetiapine] |  | Active | 
NC(=NCc1ccc(Cl)cc1)SCCCc1cnc[nH]1 [Clobenpropit] |  |  | OPC Cell Activity ([2]; Table 2): 125 nM
CC(CN(C)C)CN1c2ccccc2Sc2ccccc21 (stereo not shown) [Alimemazine] | 398 nM |  | 
CN1CCc2c(c3ccccc3n2Cc2ccccc2)C1 [Mebhydrolin] | 180 nM |  | 
O=C1CCCN1c1ccc(Oc2ccc3c(c2)CCN(C2CCC2)CC3)nc1 [GSK-239512] |  |  | OPC Cell Activity ([2]; Table 2): 120 to 160 nM
CC(C)[N+](C)(CCOC(=O)C1c2ccccc2Oc2ccccc21)C(C)C [Propantheline] | 0.22 nM |  | OPC Cell Activity ([2]; Table 1): 1250 to 2950 nM
CN1CCCN(C(c2ccccc2)c2ccc(Cl)cc2)CC1 (stereo not shown) [Homochlorcyclizine] | 22 nM |  | 
CCCCCCCCOc1ccccc1C(=O)Nc1ccc(C(=O)OCC[N+](C)(CC)CC)cc1 [Octylonium bromide] | 2 nM | Active | 
Cc1ccc(/C(=C\CN2CCCC2)c2ccccn2)cc1 [Triprolidine] | 15000 nM |  | 
C[N+]1(C)[C@@H]2C[C@@H](OC(=O)C(O)(c3cccs3)c3cccs3)C[C@H]1[C@@H]1O[C@@H]12 [Tiotropium bromide] | 0.13 nM | Active | 
CC(CN1c2ccccc2Sc2cccnc21)N(C)C (stereo not shown) [Isothipendyl] | 74 nM |  | 
c1ccc2c(c1)Sc1ccccc1N2CC1CN2CCC1CC2 (stereo not shown) [Mequitazine] | 5.0 nM |  | 
CCCNCC(O)COc1ccccc1C(=O)CCc1ccccc1 (stereo not shown) [Propafenone] |  | Active | 
